Assay results published in PMC12169749, “Isolation, biochemical characterization, and primary structure and active site determination of Dioscorea opposita (‘Nagaimo’) oligopeptidase B” (Biochemistry and Biophysics Reports, 2025).
Numbered stars: 1 amine (or outer) side, 2 acyl side, 3 side chain; on linkers, the order of the positions; unused ones are H or OH. Peptide text beside a SMILES is read from it. * marks the point of attachment. AMC = Cc1cc(=O)oc2cc(N*)ccc12; Cbz = O=C(OCc1ccccc1)*; Boc = CC(C)(C)OC(=O)*; CO = O=C([*:1])[*:2]

Legend:
[1] = target: T1, oligopeptidase B (OPB); Nagaimo protease; experiment: fluorometric AMC release, inhibitor titration; format: biochemical, Dioscorea polystachya; conditions: 100 μM Bz-Arg-MCA, 50 mM Tris-HCl pH 8.0, 10 min preincubation at 23 °C, assay 37 °C
T1 construct: native, purified from tubers; monomer, 75 kDa by gel filtration, 81 kDa by reducing SDS-PAGE; internal tryptic peptide SAGGLLMGAVLNMR
Excerpt: fluorometric AMC release, inhibitor titration on oligopeptidase B (OPB); Nagaimo protease

[2] = system: T1, oligopeptidase B (OPB); Nagaimo protease; experiment: fluorometric AMC release, Lineweaver-Burk; format: biochemical, Dioscorea polystachya; conditions: Tris-HCl pH 8.0, 37 °C
Excerpt: fluorometric AMC release, Lineweaver-Burk on oligopeptidase B (OPB); Nagaimo protease

Row | SMILES | Km [2] [µM] | further results
1 | NCCc1ccc(S(=O)(=O)F)cc1 [AEBSF, 4-(2-aminoethyl)-benzenesulfonyl fluoride] | – | IC50 ([1]; covalent): 700 nM
2 | CC(C)[C@H](NC(=O)[C@H](CCCNC(=N)N)NC(=O)N[C@@H](Cc1ccccc1)C(=O)O)C(=O)N[C@H](C=O)CCCNC(=N)N [Antipain] ({Phe-CO}-Arg-Val-Arg-aldehyde) | – | IC50 [1]: 210 nM
3 | Cc1cc(=O)oc2cc(NC(=O)[C@@H](N)CCCNC(=N)N)ccc12 [Arg-MCA] | 17.9 | –
4 | Cc1cc(=O)oc2cc(NC(=O)[C@H](CCCNC(=N)N)NC(=O)[C@H](CCCNC(=N)N)NC(=O)[C@H](CCC(N)=O)NC(=O)OC(C)(C)C)ccc12 [Boc-Gln-Arg-Arg-MCA] (Boc-Gln-Arg-Arg-{AMC}) | 15 | –
5 | Cc1cc(=O)oc2cc(NC(=O)[C@H](CCCCN)NC(=O)[C@H](CCCCN)NC(=O)[C@H](CCC(=O)O)NC(=O)OC(C)(C)C)ccc12 [Boc-Glu-Lys-Lys-MCA] (Boc-Glu-Lys-Lys-{AMC}) | 5 | –
6 | Cc1cc(=O)oc2cc(NC(=O)[C@H](CCCCN)NC(=O)[C@H](CC(C)C)NC(=O)[C@@H](NC(=O)OC(C)(C)C)C(C)C)ccc12 [Boc-Val-Leu-Lys-MCA] (Boc-Val-Leu-Lys-{AMC}) | 10 | –
7 | Cc1cc(=O)oc2cc(NC(=O)[C@H](CCCNC(=N)N)NC(=O)[C@@H]3CCCN3C(=O)[C@@H](NC(=O)OC(C)(C)C)C(C)C)ccc12 [Boc-Val-Pro-Arg-MCA] (Boc-Val-Pro-Arg-{AMC}) | 12.5 | –
8 | Cc1cc(=O)oc2cc(NC(=O)[C@H](CCCNC(=N)N)NC(=O)c3ccccc3)ccc12 [Bz-Arg-MCA] | 10 | –
9 | O=c1oc(Cl)c(Cl)c2ccccc12 [DCI, 3,4-dichloroisocoumarin] | – | IC50 ([1]; covalent): 30000 nM
10 | CC(=O)N[C@@H](CC(C)C)C(=O)N[C@@H](CC(C)C)C(=O)N[C@H](C=O)CCCNC(=N)N [Leupeptin] | – | IC50 [1]: 120 nM
11 | CCN1C(=O)C=CC1=O [NEM, N-ethylmaleimide] | – | IC50 ([1]; covalent, cysteine-directed): 880000 nM
12 | Cc1cc(=O)oc2cc(NC(=O)[C@H](CCCNC(=N)N)NC(=O)[C@H](Cc3ccccc3)NC(=O)[C@@H]3CCCN3)ccc12 [Pro-Phe-Arg-MCA] (H-Pro-Phe-Arg-{AMC}) | 10 | –
13 | Cc1ccc(S(=O)(=O)N[C@@H](CCCCN)C(=O)CCl)cc1 [TLCK] | – | IC50 ([1]; covalent): 70 nM
14 | Cc1cc(=O)oc2cc(NC(=O)[C@H](CCCNC(=N)N)NC(=O)[C@H](CCCNC(=N)N)NC(=O)OCc3ccccc3)ccc12 [Z-Arg-Arg-MCA] (Cbz-Arg-Arg-{AMC}) | 10 | –
15 | Cc1cc(=O)oc2cc(NC(=O)[C@H](CCCNC(=N)N)NC(=O)[C@@H]3CCCN3C(=O)CNC(=O)OCc3ccccc3)ccc12 [Z-Gly-Pro-Arg-MCA] (Cbz-Gly-Pro-Arg-{AMC}) | 11.8 | –
16 | Cc1cc(=O)oc2cc(NC(=O)[C@H](CCCNC(=N)N)NC(=O)[C@H](CC(C)C)NC(=O)OCc3ccccc3)ccc12 [Z-Leu-Arg-MCA] | 12.5 | –
17 | Cc1cc(=O)oc2cc(NC(=O)[C@H](CCCNC(=N)N)NC(=O)[C@H](Cc3ccccc3)NC(=O)OCc3ccccc3)ccc12 [Z-Phe-Arg-MCA] (Cbz-Phe-Arg-{AMC}) | 11 | –
18 | Cc1cc(=O)oc2cc(NC(=O)[C@H](CCCNC(=N)N)NC(=O)[C@@H](NC(=O)[C@@H](NC(=O)OCc3ccccc3)C(C)C)C(C)C)ccc12 [Z-Val-Val-Arg-MCA] (Cbz-Val-Val-Arg-{AMC}) | 10 | –
